Consider one compound from US20230331679A1, “NAPHTHALENE MONOIMIDE COMPOUNDS AND METHODS THEREOF” (JAWAHARLAL NEHRU CENTRE FOR ADVANCED SCIENTIFIC RESEARCH, priority 2020, published 2023).

A short description of data set [1]: Octanol/water partition coefficient (LogP). The class given is physicochemical. How it is done: Pharmacokinetics of TGR63 in wild-type (WT) mice was performed to assess its in vivo efficacy. The lethal dose 50 (LD50) of TGR63 was determined in WT mice through intraperitoneal (IP) injection following the Organisation for Economic Cooperation and Development (OECD) guidelines. […] FIG. 7A illustrates the calculation of lethal dose 50% (LD50) of TGR63 through intraperitoneal administration and is represented as table of experimental details and the final observation was done on 14th day. FIG. 7B illustrates the mortality (%) plotted against TGR63 concentration and calculation of LD50. Twenty-five WT mice were segregated in five different groups (G1-5, N= 5 per group) and administered with varying doses of TGR63 (1.7, 5.5, 17.5 56.0 and 179.0 mg/kg body weight, respectively) through IP injection and their survival was monitored for 14 days. The serum stability and blood-brain barrier (BBB) crossing ability of TGR63 were assessed through matrix-assisted laser desorption ionization (MALDI) mass spectrometry analysis of blood and brain samples of vehicle and TGR63 treated mice. TGR63 and vehicle were administrated in WT mice and sacrificed after 1 and 24 h to collect the blood for MALDI mass analysis FIG. 8 depicts the MALDI mass analysis of vehicle (FIG. 8A) and TGR63 treated mice blood serum after 1 h (FIG. 8B) and 24 h (FIG. 8C) of administration. The presence of TGR63 in blood was confirmed from the mass analysis even after 24 h. […] TGR63 was incubated in PBS (10 mM, pH= 7.4) and blood serum in WT mice for different time intervals (0.5, 1, 2 and 6 h) at 37° C. to evaluate the serum stability under in vitro conditions. […] FIG. 9 depicts the Serum stability of TGR63 under in vitro conditions. TGR63 was incubated in PBS (10 mM, pH= 7.4) and blood serum (WT mouse) for different time (0.5, 1, 2 and 6 h) at 37° C. […] The partition coefficient (P), a valuable physical property was calculated to predict the BBB permeability. […] FIG. 10 depicts the calculation of LogP. […] The calculated positive logP value predicts the possible BBB crossing ability for TGR63. […]

The target of data set [2] is T1, Aβ42 fibrillar aggregates (Homo sapiens, UniProt P05067).
T1 construct: commercially available β-amyloid peptide (1-42), human; purchased marck (so in the source) PP69-.025 mg
T1 sequence (P05067 672-713 limits assumed): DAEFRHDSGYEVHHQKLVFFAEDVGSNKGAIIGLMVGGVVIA
Description: ThT binding assay, dissolution of preformed Aβ42 fibrils. The data set is classed as biochemical. Particulars: after sixth day of incubation. The procedure:
Monomeric form of Aβ42 peptide was prepared by dissolving 0.25 mg of commercially available β-amyloid peptide (1-42), human (cat: PP69-.025 mg), marck peptide in 250 µL of hexafluoro-2-propanol (HFIP) solvent to obtain a Aβ42 solution. This solution was incubated at room temperature for 1 hour, further to which the HFIP solvent was removed by nitrogen gas flow to obtain the monomeric Aβ42 peptide. To prepare a fibrillar sample of Aβ42 peptide, 0.025 mg of Aβ42 peptide was dissolved in […] of PBS buffer (pH = 7.4; contains 2% of DMSO or 100 mM NaOH) to obtain a monomeric Aβ42 solution and the peptide concentration in this solution was calculated through UV-Visible absorbance studies (ε = 1450 cm^-1 M^-1). The Aβ42 monomeric solution was incubated for 5 days in PBS buffer (pH = 7.4) to allow for the full phase formation of Aβ42 fibrils. The presence of Aβ42 fibrils was further confirmed by ThT assay.
The ability of NMI compounds (TGR63, TGR64 and TGR65) to prevent Aβ42 fibrillar assembly (inhibition) and to break down the preformed fibrils (dissolution) was evaluated using thioflavin (ThT) binding assay. Aβ42 fibrils at a concentration of 10 µM and its aggregates, were used to study the effect of NMI compounds (TGR63, TGR64 and TGR65) at varying concentrations on both inhibition and dissolution assays. For the inhibition assay, all the NMI compounds (TGR63, TGR64 and TGR65) were added independently to Aβ peptide (10 µM) at 0 h of the experiment, whereas for the aggregates dissolution assay they were added to Aβ42 fibrillar aggregates grown for 2 days. Upon incubating for a predetermined period, Aβ42 inhibitor samples were analyzed using ThT by measuring the fluorescence change at 485 nm as presented in FIG. 1(b) and FIG. 1(c), wherein the error bars represent the standard deviation (SD) of the fluorescence measurement. Fluorescence values were normalized to maximal fluorescence intensity at 485 nm compared to that of the control (Aβ42 with no inhibitor). Experiments were performed at various stoichiometric ratios (Aβ42/inhibitor) of 1:1, 1:2, and 1:5 with a fixed concentration of Aβ42 at 10 µM. Each experiment was repeated three times (n = 3). […] TGR 63 recorded 80% dissolution efficiency while TGR 64 and TGR 65 recorded 75% and 78% dissolution efficiency respectively, for the stoichiometric ratio of 1:5.

In data set [3] the target is α-Syn (Homo sapiens, UniProt P37840). Description: ThT binding assay, α-Syn aggregation inhibition. The data set is classed as biochemical. The source says: Parkinson’s disease (PD) is a neuronal disorder, mainly affects the motor system. α-Syn is a presynaptic neuronal protein that is linked neuropathologically to PD plays a vital role in the pathogenesis in a number of ways. Self-aggregation of α-Syn to form fibrillar aggregates and these toxic species mediate disruption of cellular homeostasis and cause neuronal death. These toxic aggregates affect various intracellular targets, especially synaptic function. In this context, NMI compounds of the present disclosure were used to study the possible modulation of α-Syn aggregation. The effect of NMI compounds (TGR63 and TGR64) on α-syn (100 µM) aggregation inhibition was studied through ThT binding assay. Experiments were performed at stoichiometric ratios (α-Syn:inhibitor) of 1:1, 1:2, and 1:5 with the fixed concentration of α-Syn at 100 µM.

Consider `CN(C)c1ccc(C#Cc2ccc3c4c(cccc24)C(=O)N(CC[N+](C)(C)C)C3=O)cc1` [TGR63, 2-(6-((4-(dimethylamino)phenyl)ethynyl)-1,3-dioxo-1H-benzo[de]isoquinolin-2(3H)-yl)-N,N,N-trimethylethan-1-aminium], for which, in data set [1] (calculated from octanol and water layer concentrations), the logP is 0.1. In addition, in data set [1] (octanol/water partition), the “concentration in octanol layer” value is given as 21.82 µM. Moreover, in data set [1] (octanol/water partition), the “concentration in water layer” value turned out to be 18.18 µM. The dissolution efficiency in data set [2] (Aβ42/inhibitor 1:1, Aβ42 10 µM) is listed as ~ 35%; in data set [2] (Aβ42/inhibitor 1:2, Aβ42 10 µM), ~ 50%; in data set [2] (Aβ42/inhibitor 1:5, Aβ42 10 µM) it was 80%. Besides, in data set [3] (α-Syn:inhibitor 1:1, α-Syn 100 µM), the “decrease in the formation of α-Syn aggregates” value is reported as ~ 54%. The “α-Syn aggregation decreased to” value in data set [3] (α-Syn:inhibitor 1:2, α-Syn 100 µM) was found to be 65%; in data set [3] (α-Syn:inhibitor 1:5, α-Syn 100 µM), 93%.

A word on the logP: it is the decadic logarithm of the partition coefficient of the neutral form, usually between octanol and water.
